Data published in patent US7259254B2, “Mutants and assay system to identify USP/RXR ligands” (University of Kentucky Research Foundation, priority 2002, dated 2007).

Tests used:
[1] = system: Core promoter reporter with DR1, DR4 or DR12 nuclear hormone response element in Sf9 cells; experiment: Sf9 cell transfection assay: methyl epoxyfarnesoate activation of DR-enhancer/Core promoter luciferase reporter; assay type: cell-based, Spodoptera frugiperda; settings: transfected Sf9 cells, 75 μm methyl epoxyfarnesoate
Protocol: Spodoptera frugiperda cell line, Sf9, was maintained and transfected as described previously Jones et al (1998) Biochem. J. 335, 79-84; Jones et al. (2000) Biochem. J. 346, 233-240. As an internal control to compare activities of different constructs, 0.3 μg of a constituitive heat-shock promoter-driven β-galactosidase gene was cotransfected. To study the role of USP in activation of the nuclear hormone receptor response element fused to core promoter in methyl epoxyfarnesoate-treated cells, cloned D. melangaster USP (dUSP) cDNA and its derivatives containing mutations in the ligand-binding pocket were cotransfected with the reporter and internal control plasmids. […] After 48 h of the treatment, the cells were harvested and the activity of the luciferase reporter was measured using a luciferase assay kit (Promega) in a multipurpose scintillation counter (Beckman, Fullerton, Calif.). β-Galactosidase activity was measured using chlorophenol red-[…] monosodium (CPRG; Roche Molecular Biochemicals) as a colorimetric substrate.
The sequences and characteristics of the core promoter ([…]) of the JHE gene were described by Jones et al. (2001) Insect Biochem. Mol. Biol. 32, 33-49; Jones et al (1998) Biochem. J. 335, 79-84; 79-84; Jones et al. (2000) Biochem. J. 346, 233-240. The core promoter responds to respond to methyl epoxyfarnesoate through a heterologous 5′ flanking direct repeat motif in cell transfection assay. This Core promoter reporter was cloned into KpnI/BglII sites of pGL3. An NheI site was then placed immediately 5′ to the KpnI site, and multiple direct repeat (DR) sequences were cloned into the NheI site by the following method. […] Upon annealing, the double stranded oligonucleotides would then have a CTAG overhang at each 5′ end. The annealed oligonucleotides were then ligated into concatamers, fractionated by native PAGE and the gel fractions corresponding to higher concatamer forms recovered and ligated into the NheI site. Specific DR sequences for the oligonucleotides were (upper strand) for DR1: 5′-CAAGGTCAAAGGTCAG-3′ (SEQ ID NO: 13), for DR4: 5′-CAAGGTCAAGAAAGGTCAG-3′ (SEQ ID NO: 14), for DR12: 5′-[…]-3′ (SEQ ID NO: 15; CTAG on 5′ ends not shown). The recovered YDRXCore constructs (X representing 1, 4 or 12 intervening bases; Y representing the number of tandem pairs of direct repeats) were verified by sequencing. The intervening sequences in the DR1 and DR4 motifs were randomly chosen, while the DR12 sequence used is found in the ecdysteroid-sensitive ng-1 and ng-2 genes that are expressed during metamorphosis of D. melanogaster, and can serve in vitro as a binding site for the various receptor dimers involving USP (ecdysteroid receptor (EcR)/USP heterodimer, USP/DHR38 heterodimer and USP/USP homodimer. […]

[2] = target: T1, His-tagged wild-type dUSP (Drosophila melanogaster, UniProt P20153); experiment: Intrinsic tryptophan fluorescence ligand-binding assay, wild-type dUSP; settings: excitation 290 nm, emission 340 nm, 0.5 μm receptor
T1 construct: His tag; made in house; host or cells: bacteria (pET32EK vector)
T1 sequence (P20153 1-508): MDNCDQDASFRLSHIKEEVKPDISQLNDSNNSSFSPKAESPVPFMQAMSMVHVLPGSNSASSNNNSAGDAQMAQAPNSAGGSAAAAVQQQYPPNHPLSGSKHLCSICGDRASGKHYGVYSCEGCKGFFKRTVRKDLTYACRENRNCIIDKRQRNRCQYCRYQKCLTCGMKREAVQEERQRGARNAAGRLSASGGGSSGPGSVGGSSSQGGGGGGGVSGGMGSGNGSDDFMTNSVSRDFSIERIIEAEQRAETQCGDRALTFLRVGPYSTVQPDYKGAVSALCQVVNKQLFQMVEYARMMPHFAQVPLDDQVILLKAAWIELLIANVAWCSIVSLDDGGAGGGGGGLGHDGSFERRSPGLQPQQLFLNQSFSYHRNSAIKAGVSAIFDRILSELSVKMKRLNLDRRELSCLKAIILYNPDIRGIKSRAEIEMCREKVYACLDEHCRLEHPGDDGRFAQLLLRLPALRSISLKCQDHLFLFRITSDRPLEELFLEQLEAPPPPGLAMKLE
Protocol: (§1) The homodimer-enriched fraction of bacterial recombinant His-dUSP fusion protein was purified by nickel resin selection, elution with imidazole, centrifugal concentration, and then gel permeation chromatography (Superdex 200) with procedures and chemical sources exactly as already described previously Jones et al. (2000) Insect Biochem. Mol. Biol. 30, 671-679. The homodimer-enriched fraction of the purified His-USP fusion protein was raised to 2 ml of NaCl and a final concentration of 0.5 μm. For a fluorescence-based ligand-binding assay based on intrinsic tryptophan fluorescence Jones et al. (2001) Insect Biochem. Mol. Biol. 32, 33-49; Jones et al (1998) Biochem. J. 335, 79-84; 79-84; Jones et al. (2000) Biochem. J. 346, 233-240; Jones et al (1997) Proc. Natl. Acad. Sci. USA 94, 13499-13503, ligand or ethanol carrier was added and the receptor preparation excited at 290 nm and monitored for emission at 340 nm, until the signal from the receptor had stabilized. Fluorescence was measured three times for each sample, with standard deviation typically smaller than the graphical plotted datum point. Each fluorescence experiment was replicated on three or more independent occasions, each time with similar results.
(§2) The ability of the wild-type dUSP and dominant negative, ligand-binding pocket mutant dUSP to bind methyl epoxyfarnesoate was tested.

[3] = target: T2, C472A/H475L mutant dUSP (Drosophila melanogaster, UniProt P20153, C472A/H475L); experiment: Intrinsic tryptophan fluorescence ligand-binding assay, C472A/H475L mutant dUSP; settings: 75 μm ligand; excitation 290 nm, emission 340 nm
T2 construct: His tag; made in house; host or cells: bacteria (pET32EK vector)
Protocol: as §1, §2

[4] = target: T3, P498W/P499W mutant USP (Drosophila melanogaster, UniProt P20153, P498W/P499W); experiment: Intrinsic tryptophan fluorescence ligand-binding assay, P498W/P499W mutant USP; settings: excitation 290 nm, emission 340 nm
T3 construct: His tag; made in house; host or cells: bacteria (pET32EK vector)
Protocol: as §1, with “results. […]” for “results.”

[5] = system: Core promoter reporter with DR1, DR4 or DR12 nuclear hormone response element in Sf9 cells; settings: previous studies; cited from earlier work

T2 sequence (P20153 whole entry C472A/H475L): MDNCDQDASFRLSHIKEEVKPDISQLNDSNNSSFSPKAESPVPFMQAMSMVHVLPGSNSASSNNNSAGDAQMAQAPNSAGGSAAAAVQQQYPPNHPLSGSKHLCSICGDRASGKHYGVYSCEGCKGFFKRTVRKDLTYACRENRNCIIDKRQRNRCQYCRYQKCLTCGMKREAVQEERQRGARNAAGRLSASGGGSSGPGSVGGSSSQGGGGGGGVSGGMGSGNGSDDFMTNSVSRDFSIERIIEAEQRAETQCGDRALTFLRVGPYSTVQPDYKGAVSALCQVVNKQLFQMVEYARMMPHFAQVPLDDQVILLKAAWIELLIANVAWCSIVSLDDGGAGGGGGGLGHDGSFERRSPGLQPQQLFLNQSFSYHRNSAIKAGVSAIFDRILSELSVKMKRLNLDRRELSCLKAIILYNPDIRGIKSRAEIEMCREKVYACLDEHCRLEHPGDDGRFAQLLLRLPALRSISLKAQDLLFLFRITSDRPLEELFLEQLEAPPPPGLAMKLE
T3 sequence (P20153 whole entry P498W/P499W): as the sequence (P20153 whole entry C472A/H475L) above, with A472C, L475H, P498W, P499W counted along it

For COC(=O)C=C(C)CCC=C(C)CCC1OC1(C)C (stereo not drawn) [methyl epoxyfarnesoate], the “induction in promoter activity, four tandem copies of DR1 motif” value [1] was 2.5 fold, the “induction in promoter activity, four tandem copies of DR4 motif” value [1] was 3.5 fold and the “responsiveness of 1DR12mutCore (both DR12 half sites mutated)” value [1] was “no greater than the background of a Core promoter with no enhancer”. The “induction in promoter activity, 4DR12Core construct” value ([1]; four tandem DR12 motifs) was 10 fold, the “effect on receptor intrinsic fluorescence (ligand binding), wild-type dUSP” value [2] was “suppressed the fluorescence” and the “effect on receptor intrinsic fluorescence (ligand binding), wild-type dUSP” value ([2]; listed as Methyl epoxyfarnesoate) was “suppression of receptor fluorescence”. For the same molecule, the “effect on receptor intrinsic fluorescence (ligand binding), C472A/H475L mutant dUSP” value [3] was “did not exhibit a significant response”, the “effect on receptor intrinsic fluorescence, P498W/P499W mutant USP” value [4] was “sharply increasing in fluorescence before then decreasing” and the “concentration of maximum effect (dose dependent)” value [5] was about 75 μm.
